In PubChem BioAssay (NCI):
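Values below derive from 48-hour exposures of cells grown in 96-well plates, with endpoints linearly interpolated between the two concentrations bracketing the appropriate inhibition level. TGI marks complete inhibition of growth.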

Columns and labels:
Assay in all cases: NCI tumour cell line growth inhibition, 48 h
DMS 114 small cell lung = system: DMS 114 small cell lung
ACHN renal = system: ACHN renal
SF-295 CNS = system: SF-295 CNS
SNB-75 CNS = system: SNB-75 CNS
HCT-15 colon = system: HCT-15 colon
OVCAR-5 ovarian = system: OVCAR-5 ovarian
UACC-62 melanoma = system: UACC-62 melanoma
SK-MEL-28 melanoma = system: SK-MEL-28 melanoma
SW-620 colon = system: SW-620 colon
LXFL 529 NSCLC = system: LXFL 529 NSCLC

**Q.** Which TGI (DMS 114 small cell lung) does the source give for `CCCCC(C(=O)CCC(=O)Nc1ccc(Cl)cc1)C(=O)C(C)C` (stereo not given) here?
**A.** The TGI was greater than 100 µM.

**Q.** And the TGI (ACHN renal)?
**A.** Its TGI is greater than 100 µM.

**Q.** And the TGI (SF-295 CNS)?
**A.** The TGI was greater than 100 µM.

**Q.** What about the TGI (SNB-75 CNS) of the same compound?
**A.** The TGI was greater than 100 µM.

**Q.** What about the TGI (HCT-15 colon) of the same compound?
**A.** Its TGI is greater than 100 µM.

**Q.** And the TGI (OVCAR-5 ovarian)?
**A.** Its TGI is greater than 100 µM.

**Q.** What about the TGI (UACC-62 melanoma) of the same compound?
**A.** The TGI was greater than 100 µM.

**Q.** What about the TGI (SK-MEL-28 melanoma) of the same compound?
**A.** The TGI was greater than 100 µM.

**Q.** What about the TGI (SW-620 colon) of the same compound?
**A.** The TGI was greater than 100 µM.

**Q.** And the TGI (LXFL 529 NSCLC)?
**A.** Its TGI is greater than 100 µM.

**Q.** How did the TGI (DMS 114 small cell lung) turn out when `Nc1ccc(C(=O)Nc2ccccc2N)cc1` was run?
**A.** The TGI was greater than 100 µM.

**Q.** And the TGI (ACHN renal)?
**A.** Its TGI is greater than 100 µM.

**Q.** And the TGI (SF-295 CNS)?
**A.** Its TGI is greater than 100 µM.

**Q.** And the TGI (SNB-75 CNS)?
**A.** The TGI was greater than 93.1 µM.

**Q.** What about the TGI (HCT-15 colon) of the same compound?
**A.** Its TGI is greater than 100 µM.

**Q.** And the TGI (OVCAR-5 ovarian)?
**A.** Its TGI is greater than 82.7 µM.

**Q.** And the TGI (UACC-62 melanoma)?
**A.** Its TGI is 39.7 µM.

**Q.** And the TGI (SK-MEL-28 melanoma)?
**A.** Its TGI is greater than 100 µM.

**Q.** And the TGI (SW-620 colon)?
**A.** The TGI was greater than 100 µM.

**Q.** And the TGI (LXFL 529 NSCLC)?
**A.** Its TGI is greater than 100 µM.

**Q.** Which results are given for `COc1ccc(/C=C2\CCC(Cc3ccccc3)(CN(C)C)C2=O)cc1` (stereo not given)?
**A.** TGI (DMS 114 small cell lung): 48.6 µM; TGI (ACHN renal): > 100 µM; TGI (SF-295 CNS): > 100 µM; TGI (SNB-75 CNS): > 100 µM; TGI (HCT-15 colon): > 70.7 µM; TGI (OVCAR-5 ovarian): > 100 µM; TGI (UACC-62 melanoma): > 76.9 µM; TGI (SK-MEL-28 melanoma): > 100 µM; TGI (SW-620 colon): > 73.3 µM; TGI (LXFL 529 NSCLC): > 100 µM

**Q.** What does the source list for `NC(=O)c1ncn(Cc2ccccc2)c1CNC(N)=S`?
**A.** TGI (DMS 114 small cell lung): > 100 µM; TGI (ACHN renal): > 100 µM; TGI (SF-295 CNS): > 100 µM; TGI (SNB-75 CNS): > 100 µM; TGI (HCT-15 colon): > 100 µM; TGI (OVCAR-5 ovarian): > 100 µM; TGI (UACC-62 melanoma): > 100 µM; TGI (SK-MEL-28 melanoma): > 100 µM; TGI (SW-620 colon): > 100 µM; TGI (LXFL 529 NSCLC): > 100 µM

**Q.** Which TGI (DMS 114 small cell lung) does the source give for `Nc1nc2ncn(CC(O)COC(=O)c3ccccc3)c2c(=O)[nH]1` (stereo not given) here?
**A.** Its TGI is greater than 100 µM.

**Q.** And the TGI (ACHN renal)?
**A.** Its TGI is greater than 100 µM.

**Q.** And the TGI (SF-295 CNS)?
**A.** Its TGI is greater than 100 µM.

**Q.** And the TGI (SNB-75 CNS)?
**A.** Its TGI is greater than 100 µM.

**Q.** And the TGI (HCT-15 colon)?
**A.** The TGI was greater than 100 µM.

**Q.** And the TGI (OVCAR-5 ovarian)?
**A.** The TGI was greater than 100 µM.

**Q.** And the TGI (UACC-62 melanoma)?
**A.** Its TGI is greater than 100 µM.

**Q.** What about the TGI (SK-MEL-28 melanoma) of the same compound?
**A.** Its TGI is greater than 100 µM.

**Q.** And the TGI (SW-620 colon)?
**A.** The TGI was greater than 100 µM.

**Q.** And the TGI (LXFL 529 NSCLC)?
**A.** The TGI was greater than 100 µM.

**Q.** `ClCCCCOC1CCCCO1` (stereo not given) was tested. Which TGI (DMS 114 small cell lung) did it give?
**A.** Its TGI is greater than 100 µM.

**Q.** What about the TGI (ACHN renal) of the same compound?
**A.** Its TGI is greater than 100 µM.

**Q.** What about the TGI (SF-295 CNS) of the same compound?
**A.** Its TGI is greater than 100 µM.

**Q.** What about the TGI (SNB-75 CNS) of the same compound?
**A.** Its TGI is greater than 100 µM.

**Q.** And the TGI (HCT-15 colon)?
**A.** The TGI was greater than 100 µM.

**Q.** And the TGI (OVCAR-5 ovarian)?
**A.** The TGI was greater than 100 µM.

**Q.** What about the TGI (UACC-62 melanoma) of the same compound?
**A.** Its TGI is greater than 100 µM.

**Q.** What about the TGI (SK-MEL-28 melanoma) of the same compound?
**A.** Its TGI is greater than 100 µM.

**Q.** What about the TGI (SW-620 colon) of the same compound?
**A.** Its TGI is greater than 100 µM.

**Q.** What about the TGI (LXFL 529 NSCLC) of the same compound?
**A.** The TGI was greater than 100 µM.

**Q.** What does the source list for `c1ccc2c(c1)N=C(c1ccc3ccccc3c1)CC(c1cccc3ccccc13)S2` (stereo not given)?
**A.** TGI (DMS 114 small cell lung): > 100 µM; TGI (ACHN renal): > 100 µM; TGI (SF-295 CNS): > 100 µM; TGI (SNB-75 CNS): > 100 µM; TGI (HCT-15 colon): > 100 µM; TGI (OVCAR-5 ovarian): > 100 µM; TGI (UACC-62 melanoma): > 100 µM; TGI (SK-MEL-28 melanoma): > 100 µM; TGI (SW-620 colon): > 100 µM; TGI (LXFL 529 NSCLC): > 100 µM

**Q.** Which results are given for `CC1CC(c2ccc(Cl)c(Cl)c2)=Nc2ccccc2S1` (stereo not given)?
**A.** TGI (DMS 114 small cell lung): > 100 µM; TGI (ACHN renal): > 100 µM; TGI (SF-295 CNS): > 100 µM; TGI (SNB-75 CNS): > 100 µM; TGI (HCT-15 colon): > 100 µM; TGI (OVCAR-5 ovarian): > 100 µM; TGI (UACC-62 melanoma): > 100 µM; TGI (SK-MEL-28 melanoma): > 100 µM; TGI (SW-620 colon): > 100 µM; TGI (LXFL 529 NSCLC): > 100 µM

**Q.** For `Cc1ccc2nc3c(C)cc(=O)cc-3sc2c1`, which TGI (DMS 114 small cell lung) is on record?
**A.** Its TGI is 45.5 µM.

**Q.** And the TGI (ACHN renal)?
**A.** Its TGI is 53.1 µM.

**Q.** And the TGI (SF-295 CNS)?
**A.** The TGI was greater than 100 µM.

**Q.** What about the TGI (SNB-75 CNS) of the same compound?
**A.** Its TGI is 69.2 µM.

**Q.** What about the TGI (HCT-15 colon) of the same compound?
**A.** The TGI was 40.9 µM.

**Q.** And the TGI (OVCAR-5 ovarian)?
**A.** Its TGI is 61 µM.

**Q.** What about the TGI (UACC-62 melanoma) of the same compound?
**A.** The TGI was 29 µM.

**Q.** And the TGI (SK-MEL-28 melanoma)?
**A.** Its TGI is 73 µM.

**Q.** What about the TGI (SW-620 colon) of the same compound?
**A.** The TGI was 31.1 µM.

**Q.** What about the TGI (LXFL 529 NSCLC) of the same compound?
**A.** Its TGI is greater than 100 µM.

**Q.** Which results are given for `CN1CCc2cc3c4cc2C1Cc1ccc(cc1)Oc1cc(ccc1O)CC1c2c(cc(O)c(c2O4)O3)CCN1C` (stereo not given)?
**A.** TGI (DMS 114 small cell lung): 4.58 µM; TGI (ACHN renal): 20.7 µM; TGI (SF-295 CNS): 3.11 µM; TGI (SNB-75 CNS): 65.6 µM; TGI (HCT-15 colon): 4.27 µM; TGI (OVCAR-5 ovarian): 14.8 µM; TGI (UACC-62 melanoma): 3.76 µM; TGI (SK-MEL-28 melanoma): 3.33 µM; TGI (SW-620 colon): 7.46 µM; TGI (LXFL 529 NSCLC): 6.26 µM

**Q.** What does the source list for `O=C(NC1C(=O)NNC1c1ccccc1Cl)c1ccccc1` (stereo not given)?
**A.** TGI (DMS 114 small cell lung): > 100 µM; TGI (ACHN renal): > 100 µM; TGI (SF-295 CNS): > 100 µM; TGI (SNB-75 CNS): > 100 µM; TGI (HCT-15 colon): > 100 µM; TGI (OVCAR-5 ovarian): > 100 µM; TGI (UACC-62 melanoma): > 100 µM; TGI (SK-MEL-28 melanoma): > 100 µM; TGI (SW-620 colon): > 100 µM; TGI (LXFL 529 NSCLC): > 100 µM
